Data reported in US9006221B2, “Method of modulating ship activity” (H. Lee Moffitt Cancer Center and Reserach Institute, Inc., priority 2008, dated 2015).

System: priming of allogeneic T cell responses
Assay: MLR with splenocytes from inhibitor-treated mice as stimulators
Format: in vivo, mouse
Excerpt: FACS quantitation of Mac1^+Gr1^+ MIR cells in spleen (A) and lymph node (B) of C57BL/6 mice treated with the SHIP1 inhibitor (Compound), vehicle (Vehicle) or unmanipulated controls (Normal) as indicated. (C) Mixed-Leukocyte-Reactions (MLR) where splenocytes from SHIP1 inhibitor-treated C57BL6 (H2b) mice were used as stimulators for BALB/C (H2d) responders. In parallel splenocytes from either unmanipulated (Normal) or Vehicle treated C57BL6 mice were used as positive controls for the MLR. […] (D) Human PBMC were pre-treated for 24 hr with 3α-aminocholestane (Compound) or vehicle, irradiated and then used as stimulators for untreated PBMC from a different donor in a one-way MLR. [BALB/C=responder splenocytes not mixed with BL6 stimulators; Stim=irradiated, SHIP1 inhibitor-treated human PBMC absent responder PBMC; Resp=human PBMC responders absent allogeneic stimulators; Media, media to which only [3H]thymidine was added]. […] (E) SHIP1 inhibition increases circulating granulocyte/neutrophil numbers. Mice were treated daily for 7 days with 60 μM SHIP1 inhibitor (Compound), its vehicle (Vehicle) or were unmanipulated (Normal). Absolute peripheral blood granulocyte numbers were determined by an automated blood cell analyzer. […]

Structure (SMILES)	ability of splenocytes from treated mice to stimulate allogeneic T cell responses (H2b mice treated daily i.p. 60 μM for 7 days, H2d responder splenocytes)	allogeneic T cell priming by splenocytes from treated mice (splenocytes from three NSC13480 treated mice as stimulators, MHC mismatched responders)
CC(C)CCC[C@@H](C)[C@H]1CC[C@H]2[C@@H]3CC[C@H]4C[C@H](N)CC[C@]4(C)[C@H]3CC[C@]12C [NSC23922, (3R,5S,8R,9S,10S,13R,14S,17R)-10,13-dimethyl-17-[(2R)-6-methylheptan-2-yl]-2,3,4,5,6,7,8,9,11,12,14,15,16,17-tetradecahydro-1H-cyclopenta[a]phenanthren-3-amine]	profoundly impaired	–
OC(c1cc(-c2ccccc2)nc2c1ccc1ccccc12)C1CCCCN1 (centres unmarked) [NSC13480, (2-phenylbenzo[h]quinolin-4-yl)-piperidin-2-ylmethanol]	–	profound inhibition
